Source: a melting point compilation (Tetko et al.; mined from patent text by program, amines drawn as free bases though some values may be those of a salt)

melting point [°C] | Compound
176 to 177 | CC(C)(C)c1cc(C(Cl)Cl)c(Cl)c(C(C)(C)C)c1O
205 to 206 | CNc1nc(C)c(-c2ccnc(Nc3cccc(S(=O)(=O)NCCOC)c3)n2)s1
> 300 | O=C(O)c1cccc(-c2cnn3c(O)ncnc23)c1
173 to 174 | CC(C)c1cccc(C(C)C)c1NC(=O)NCC1(O)CCc2ccccc21 (stereo unspecified)
50 to 52 | OC(CCCl)COc1cccc(C(F)(F)F)c1 (stereo unspecified)
102 to 104 | COc1cc(CO)ncc1C
123 to 124 | CN1CCN(C2=Nc3ccccc3Cc3nccn32)CC1
95 | Cn1ccc2ccc(NC(=O)/C=C/c3ccc(C(C)(C)C)cc3)cc21
135 to 137 | CSC1NC(=O)N(C2CCCCC2)C(=O)N1C (stereo unspecified)
306 to 312 | Cc1cc(C)nc(-n2nc(S(=O)(=O)Nc3c(Cl)cccc3Cl)nc2N)n1
134 | O=c1c2ccc(OCCN3CCCCC3)cc2oc2cc(OCCN3CCCCC3)ccc12
160 to 162 | O=C(Nc1ccc(-n2nc(C(F)(F)F)cc2C(F)(F)F)cc1)c1cc(F)c(Cl)cc1F
234 to 236 | CCn1cc(C(=O)O)c(=O)c2cc(F)c(N3CCOC(CNC=O)C3)c(F)c21 (stereo unspecified)
149 to 150 | O=S1(=O)N=C(c2cccc(Cl)c2)c2ccccc21
108 to 110 | O=CC1=Cc2cc(-c3ccccc3)ccc2OC1
110 to 112 | CCc1ccc(S(=O)(=O)c2ccc(C)nc2Nc2ccc(OC)cc2Cl)cc1
172 to 174 | COc1ccc(C(=O)Nc2ccccc2)cc1NC(=S)Nc1ccccc1C
138 to 139 | CC(F)c1nc2ncnn2c(NC2CCC(C(C)(C)C)CC2)c1Cl (stereo unspecified)
231 to 233 | CC(C)(C)c1ccc(C(=O)Nc2cn3nc(NCCO)ccc3n2)cc1
114 to 117 | CCCCCCCCCCCCNC(=O)c1cc(-c2ccc(OC)cc2)cc(-c2cccc(Cl)c2OCC(=O)O)c1
154 to 155 | CC(C)C(S)C(=O)NC1(C(=O)NC(Cc2ccc(-c3ccccc3)s2)C(=O)O)CCCC1 (stereo unspecified)
213 to 214 | CC(C)n1c(=O)nc(N(C)C)[nH]c1=O
170 to 172 | CC(C)(C)OC(=O)NC(=Cc1ncoc1C(C)(C)C)C(=O)OC(C)(C)C
136 to 138 | Cc1cc(CO)cc(C#N)n1

melting point [°C] | Compound
65 to 67 | Cc1ccc(S(=O)(=O)Oc2cccc(C=O)c2)cc1
122 to 127 | CCCCCCCCNc1c(Nc2ccc(CC(C)NC[C@H](O)COc3ccc(O)cc3)cc2)c(=O)c1=O (stereo partly specified)
> 220 | CCC(C)CC(C)NC1=NS(=O)(=O)c2cc(Cl)ccc2N1 (stereo unspecified)
92 to 95 | CCOC(=O)c1cc2ccccc2n1S(=O)(=O)c1ccc(C)cc1
168 to 170 | Cc1c(C)c2c(c(C)c1N)CC(C)(CN1CCC(C(=O)NCC(c3ccccc3)c3ccccc3)CC1)O2 (stereo unspecified)
92.5 to 94 | CCCCOC(=O)C1C(C(C)=O)C(=O)N1C(Cc1ccc(OC)cc1)Cc1ccc(OC)cc1 (stereo unspecified)
178 to 179 | CC(=O)Nc1nc(CCc2ccc(CCN3CCN(C(=O)OC(C)(C)C)CC3)cc2)cs1
177 to 181 | CS(=O)(=O)c1nccc(-n2ncc3ccccc32)n1
186 to 187 | Cc1c(-c2ccccc2)oc2c(S(=O)(=O)NCCO)cccc2c1=O
186 | CC(=O)Nc1ccc(NCCO)c([N+](=O)[O-])c1
206 to 210 | COc1ccc(-c2nc(SC(C)C)[nH]c2-c2ccncc2)cc1
138 to 143 | CN(C)c1ccc(CN(C(=O)C2CCCc3c(O)cccc32)c2ccccc2)cc1 (stereo unspecified)
> 260 | COc1cc2sc(C(=O)O)c(Cl)c2cc1OC
199 | COc1ccc2ccc(Nc3cc(-c4ccc(C(F)(F)F)cc4)ncn3)cc2n1
164 | COc1ccc(C2=N[C@H](c3ccccc3)[C@@H](OC(=O)Oc3ccc([N+](=O)[O-])cc3)CO2)cc1 (racemic)
182 to 183 | Cc1cc(C)nc(Sc2ccnc3cc(Cl)cc(Cl)c23)n1
176 | Clc1ccc(N2CC=C(COc3ccc(C4=NCCO4)cc3)CC2)nn1
108 to 110 | COC(=O)c1cc2ccc(Br)cc2s1
232 to 234 | CCc1ccc(S(=O)(=O)Nc2ccccc2/C=C/c2ccncc2)cc1
181 to 182 | CCC(C)C(NC(=O)C(C)N(C(=O)OC(C)(C)C)C1CCCCC1)C(=O)NC(CC1CCCCC1)C(O)C(O)CC(C)C (stereo unspecified)
129 to 130 | O=C(NCc1cc(C(F)(F)F)cc(C(F)(F)F)c1)c1oc(=O)c2ncccc2c1-c1ccccc1
154 to 156 | CC(NC(=O)OCc1ccccc1)C(=O)NC1C(C(=O)O)OC(n2cnc3c(NC(=O)c4ccccc4)ncnc32)C1O (stereo unspecified)
227 to 230 | CC(C)(C)c1cc2c(c(C(C)(C)C)c1)OP(Cl)Oc1c(cc(C(C)(C)C)cc1C(C)(C)C)C2
114 to 120 | O=C1NC2(CCCC2)CCCC1(Cl)Cl

melting point [°C] | Compound
201 to 205 | O=C(Nc1cc(Cl)cc2c(Cl)ccnc12)c1c(Cl)cccc1Cl
195 to 197 | O=C(OCc1ccccc1)c1cc2c(=O)n(Cc3ccccc3)c(=O)[nH]c2s1
191 to 193 | O=C(O)Cc1c(-c2ccccc2)nn(-c2ccccc2Cl)c1-c1ccccc1
174 to 178 | Cc1nc(N(C)C)sc1C(=O)c1ccc(N)c(N)c1
88 | O=C(CC(Cc1ccccc1)C(=O)O)c1ccc(F)cc1 (single isomer, unassigned; (+))
92 to 97 | CN1CCN(c2cc(Cl)cc3c2c(=O)n(Cc2ccc(Cl)cc2)c(=O)n3Cc2ccccc2)CC1
162 to 163 | CC(=O)Oc1ccc(C(=O)O)cc1C(=O)c1ccccc1
150 to 152 | CC(=O)NC[C@H]1CN(c2ccc(N3CCC(CC#N)CC3)cc2)C(=O)O1
140 to 145 | CCOC(=O)C(=O)Nc1ccc(OC)c(NC(=O)C(=O)OCC)c1
186 to 187 | COc1nc2cc(Br)c(Br)c(NS(C)(=O)=O)c2nc1OC
278 to 280 | CC1=C(Cn2ccnc2)CCc2ccc(C(=O)O)cc21
44 to 45 | CCOC(=O)COc1ccc(CBr)cc1
122 to 124 | Cc1c(CC2CCc3c(c4ccccc4n3C)C2=O)ncn1S(=O)(=O)N(C)C (stereo unspecified)
113 to 115 | O=C(CC(=O)C1CC1)c1cnc2ccccc2n1
129 to 131 | COc1ccc(CCNC(=O)C(=O)NCc2ccncc2)cc1OC1CCCC1
98 to 99 | COc1ccc2c(c1)c(S(=O)(=O)c1ccccc1)cn2CCNCc1ccccc1
67.5 to 68 | CC(=O)c1c(C(C)C)nn2c(C)cccc12
230 to 233 | NC(=O)c1cc([N+](=O)[O-])ccc1I
128 to 130 | OC(CCCN1CCC(O)(c2ccc(Cl)cc2)CC1)c1ccc(F)cc1 (stereo unspecified)
97 to 99 | COc1ccccc1CCNC[C@H](O)COc1ncccc1C#N
197 to 198 | COc1c(Br)ccc2s[nH]c(=O)c12
89 to 93 | CC(C)(C)OC(=O)NCc1ccccc1-c1ccc(CO)cc1
142 to 143 | CC(=O)c1ccc(NC(=O)NN2CC=CCC2)cc1
197 to 198 | FC(F)(F)c1cccc(Nc2nccc(-c3ccncc3)n2)c1

melting point [°C] | Compound
170 | O=C(CCl)NC(=O)Nc1cc(C(F)(F)F)cc(C(F)(F)F)c1
190 to 193 | NS(=O)(=O)c1ccc(-c2cnn(C=C(F)C(F)F)c(=O)c2-c2ccc(F)cc2)cc1
125 to 126 | COC(CC(=O)O)C(O)=Nc1cc(Cl)cc(Cl)c1 (stereo unspecified)
113 to 114 | O[C@@H](CNCCOc1ccc2oc(-c3ccon3)cc2c1)c1cccc(C(F)(F)F)c1
113 to 114 | COc1ccc2cc([C@H](C)C(=O)OCC(=O)N(C)CC(=O)OCCO)ccc2c1
272 to 273 | NC(=NO)c1cccc(-c2nc3sccn3c2-c2ccnc(NC3CCCN(S(=O)(=O)c4ccc(Cl)cc4)C3)n2)c1 (stereo unspecified)
249 to 250 | COc1ccc(C(=O)NCc2ccc(CNC(=O)c3ccc(OC)cc3)cc2)cc1
177 to 180 | Nc1nc(NC2CCC(CO)C2)c2ncn(C3C=CC(CO)C3)c2n1 (stereo unspecified)
167 to 168 | NC1=C2C=NN=C2N(c2ccccc2)CN1Cc1ccccc1
86 to 87 | O=C(O)CCCCCCCCn1nnc(-c2ccccc2)c1-c1ccccc1
122 to 124 | Cc1ccsc1CNC(=O)C(=O)NCCc1ccccn1
216 | CN(C(=O)c1cn2cc(-c3ccc(Cl)cc3)ccc2n1)C(Cc1ccc(OCc2ccccc2)cc1)C(=O)O (stereo unspecified)
134 to 135 | CCOC(=O)CCc1cccc(NC(=O)c2cc(-c3ccc(C(F)(F)F)cc3)oc2C)c1
195 | CCOP(=O)(CCNC1CCN(S(=O)(=O)c2ccc(Nc3nccc(Nc4ccc(F)cc4)n3)cc2)CC1)OCC
136 to 139 | Cc1cccc(-c2[nH]c(C(C)C)nc2-c2cccc(-c3ccc4c(c3)CCCS4=O)c2)n1 (stereo unspecified)
98 to 100 | COc1ccc(C#N)cc1OC1COCC1OC (stereo unspecified)
208 to 210 | Cn1cc(NC=O)cc1C(=O)O
240 to 242 | Cn1c(C(F)(F)F)cc(=O)n(-c2ccc3snc(CC(=O)O)c3c2)c1=O
174 to 176 | Fc1ccccc1N1CC2(CCNCC2)c2ccc(Cl)cc21
101 to 102 | CC(C)[Si](C)(C)CCCSCCCNC(=O)n1cc(F)c(=O)[nH]c1=O
121 to 125 | CC(C)OCCOc1ccc(-c2nc(C(=O)Nc3nccs3)c(-c3ccc(Cl)cc3)[nH]2)cc1
230 to 233 | O=C1c2ccccc2Cc2c(O)cccc21
> 250 | CSc1ncc2ccc(N)nc2n1

Compound | melting point [°C]
N#CC1CN1C(=O)NC(=O)CCl (stereo unspecified) | 152 to 155
COC(=O)c1cccc(Cn2nc(C(N)=O)c3ccccc32)c1 | 166 to 168
Cc1c(C=O)ncn1Cc1ccccc1 | 107 to 110
CCN(CC)C(=O)Cc1c(-c2ccc(OC)cc2)nc2c(C)cc(C)nn12 | 129 to 131
Cc1c(Cl)ccc2c(=O)n(CCCN3CC=C(c4ccc(Cl)cc4)CC3)c(=O)[nH]c12 | 208 to 210
CC1=CCC2(C)C(CCC3C4CCC(=O)C4(C)CCC32)C1 (stereo unspecified) | 124 to 126
